Experimental data reported in PubChem BioAssay (NCI).
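Five concentrations, 48 hours, 96-well plates. TGI: concentration producing complete growth inhibition.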

Columns and labels:
Test in all cases: NCI anticancer screen, dose series, 48 h
T-47D breast = system: T-47D breast
SF-539 CNS = system: SF-539 CNS
K-562 leukemia = system: K-562 leukemia
HS 578T breast = system: HS 578T breast
MDA-MB-435 = system: MDA-MB-435
SK-MEL-2 melanoma = system: SK-MEL-2 melanoma
SF-268 CNS = system: SF-268 CNS
M14 melanoma = system: M14 melanoma
PC-3 prostate = system: PC-3 prostate
UACC-62 melanoma = system: UACC-62 melanoma
OVCAR-3 ovarian = system: OVCAR-3 ovarian
HCT-116 colon = system: HCT-116 colon
MOLT-4 leukemia = system: MOLT-4 leukemia
NCI-H226 lung = system: NCI-H226 lung
BT-549 breast = system: BT-549 breast
MALME-3M melanoma = system: MALME-3M melanoma
SR leukemia = system: SR leukemia
TK-10 renal = system: TK-10 renal
SK-MEL-5 melanoma = system: SK-MEL-5 melanoma
OVCAR-5 ovarian = system: OVCAR-5 ovarian

| SMILES | TGI (T-47D breast) | TGI (SF-539 CNS) | TGI (K-562 leukemia) | TGI (HS 578T breast) | TGI (MDA-MB-435) | TGI (SK-MEL-2 melanoma) | TGI (SF-268 CNS) | TGI (M14 melanoma) | TGI (PC-3 prostate) | TGI (UACC-62 melanoma) | TGI (OVCAR-3 ovarian) | TGI (HCT-116 colon) | TGI (MOLT-4 leukemia) | TGI (NCI-H226 lung) | TGI (BT-549 breast) | TGI (MALME-3M melanoma) | TGI (SR leukemia) | TGI (TK-10 renal) | TGI (SK-MEL-5 melanoma) | TGI (OVCAR-5 ovarian) |
| --- | --- | --- | --- | --- | --- | --- | --- | --- | --- | --- | --- | --- | --- | --- | --- | --- | --- | --- | --- | --- |
| CSC1=NC(C(N)=O)C(N)N1C (stereo not given) | > 100 µM | > 100 µM | > 100 µM | > 100 µM | > 100 µM | > 100 µM | > 100 µM | > 100 µM | > 100 µM | > 100 µM | > 100 µM | > 100 µM | > 100 µM | > 100 µM | > 100 µM | > 100 µM | > 100 µM | > 100 µM | > 100 µM | > 100 µM |
| O=C1c2ccccc2C(=O)c2c1ccc1nc3c(nc21)-c1c2ccccc2cc2cccc-3c12 | > 84.2 µM | > 100 µM | > 100 µM | > 52.4 µM | 38.6 µM | > 100 µM | > 100 µM | > 100 µM | > 100 µM | > 86.2 µM | > 100 µM | > 100 µM | > 100 µM | > 100 µM | > 100 µM | > 100 µM | > 100 µM | > 100 µM | > 100 µM | > 100 µM |
| Cc1nn(C(=O)c2ccc(Cl)cc2)c2c1C(c1cccc([N+](=O)[O-])c1)SC(N)=N2 (stereo not given) | > 10 µM | > 10 µM | > 10 µM | > 10 µM | > 10 µM | > 10 µM | > 10 µM | > 10 µM | > 10 µM | > 10 µM | > 10 µM | > 10 µM | > 10 µM | > 10 µM | > 10 µM | > 10 µM | > 10 µM | > 10 µM | > 10 µM | > 10 µM |
| O=c1oc2nc(-c3ccccc3)cc(C(F)(F)F)c2n1Cc1ccccc1 | > 45 µM | > 100 µM | > 100 µM | > 75.3 µM | 3.13 µM | > 100 µM | > 100 µM | > 82.9 µM | > 100 µM | > 100 µM | > 100 µM | > 100 µM | > 100 µM | > 100 µM | > 100 µM | 98.5 µM | > 100 µM | > 100 µM | > 100 µM | > 100 µM |
| CCCCCC(=O)Nc1nc[nH]c1C(N)=O | > 100 µM | > 100 µM | > 100 µM | > 100 µM | > 100 µM | > 100 µM | > 100 µM | > 100 µM | > 100 µM | > 100 µM | > 100 µM | > 100 µM | > 100 µM | > 100 µM | > 100 µM | > 100 µM | > 100 µM | > 100 µM | > 100 µM | > 100 µM |
| CCOC(=O)CC1(O)CCCCC1(Sc1ccc(C)cc1)Sc1ccc(C)cc1 (stereo not given) | 85.3 µM | > 100 µM | > 100 µM | 84.4 µM | > 100 µM | 65.9 µM | > 100 µM | > 100 µM | > 100 µM | > 100 µM | > 100 µM | > 100 µM | > 100 µM | > 100 µM | > 100 µM | 91.8 µM | > 100 µM | > 100 µM | > 100 µM | > 100 µM |
| Cc1cccc2c(N)c3cccc(C(=O)NCC[N+](C)(C)Cc4sccc4[N+](=O)[O-])c3nc12 | > 100 µM | 14.4 µM | > 100 µM | 28.3 µM | > 100 µM | > 100 µM | > 100 µM | 32.8 µM | 77 µM | 36 µM | > 100 µM | 96.8 µM | > 100 µM | 32 µM | 66.2 µM | 27.7 µM | > 100 µM | > 100 µM | > 100 µM | 33.1 µM |
| O=C(CCCN1CCC2(CC1)NC(=O)c1ccccc1O2)c1ccc(F)cc1 | > 100 µM | > 100 µM | > 100 µM | > 100 µM | > 100 µM | > 100 µM | > 100 µM | > 100 µM | > 100 µM | > 100 µM | > 100 µM | > 100 µM | > 100 µM | > 100 µM | > 100 µM | > 100 µM | > 100 µM | > 100 µM | > 100 µM | > 100 µM |
